The source of these data is publication PMC5917010, “Structural basis for GPR40 allosteric agonism and incretin stimulation” (Nature Communications, 2018).

The test system of experiment [1] is GPR40 knock-out (KO) mice. Briefly: IPGTT in GPR40 knock-out mice. It is filed as in vivo, mouse. The settings on record: high dose of compound 1. On the procedure:
Nine to ten week old male ICR mice (Envigo) and GPR40 KO mice (Taconic) were used. The day before an IPGTT (~1600), animals were fasted in clean cages. The following morning (~0800), animals were randomized on fasting glucose and body weight (N = 6 per group). Mice were orally administered a test article or vehicle 60 min prior to an intraperitoneal (IP) injection of glucose (2g/kg). Blood glucose levels were determined by a glucometer from tail bleeds taken at 0, 15, 30, 60, and 120 min after the glucose challenge. An average of two readings were reported at each time point. Also, blood samples were collected into serum tubes at 0, 3, 6, and 15 min post glucose injection for insulin measurement. Serum tubes were centrifuged at 3000g for 5 min and serum transferred into 96-well plates for insulin analysis by a Mesoscale rat/mouse insulin assay.

Experiment [2] addresses T1, human GPR40 (Homo sapiens, UniProt O14842).
T1 construct: HEK293 cells stably overexpressing full length human GPR40; expressed in transfected cells
The experiment in a line: Human GPR40 IP1. It is filed as cell-based.

Experiment [3] concerns the target T2, Human GPR120 (Homo sapiens, UniProt Q5NUL3).
T2 sequence (Q5NUL3 1-361): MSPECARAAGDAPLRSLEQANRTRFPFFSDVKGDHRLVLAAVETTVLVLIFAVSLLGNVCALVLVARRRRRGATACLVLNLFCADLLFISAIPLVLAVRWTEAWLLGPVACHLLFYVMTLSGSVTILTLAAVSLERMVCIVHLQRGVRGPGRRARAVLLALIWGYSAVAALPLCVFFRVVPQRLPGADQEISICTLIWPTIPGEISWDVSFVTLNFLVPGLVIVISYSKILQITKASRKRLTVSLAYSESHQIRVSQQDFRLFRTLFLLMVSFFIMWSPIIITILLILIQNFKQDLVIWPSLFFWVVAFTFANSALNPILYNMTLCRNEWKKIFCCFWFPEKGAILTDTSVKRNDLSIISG
The experiment in a line: Human GPR120 Calcium (FLIPR). To be noted: Supplementary Table 1. It is filed as cell-based.

The target of a further experiment is T3, human PPARgama (Homo sapiens, UniProt P37231).
T3 sequence (P37231 1-505): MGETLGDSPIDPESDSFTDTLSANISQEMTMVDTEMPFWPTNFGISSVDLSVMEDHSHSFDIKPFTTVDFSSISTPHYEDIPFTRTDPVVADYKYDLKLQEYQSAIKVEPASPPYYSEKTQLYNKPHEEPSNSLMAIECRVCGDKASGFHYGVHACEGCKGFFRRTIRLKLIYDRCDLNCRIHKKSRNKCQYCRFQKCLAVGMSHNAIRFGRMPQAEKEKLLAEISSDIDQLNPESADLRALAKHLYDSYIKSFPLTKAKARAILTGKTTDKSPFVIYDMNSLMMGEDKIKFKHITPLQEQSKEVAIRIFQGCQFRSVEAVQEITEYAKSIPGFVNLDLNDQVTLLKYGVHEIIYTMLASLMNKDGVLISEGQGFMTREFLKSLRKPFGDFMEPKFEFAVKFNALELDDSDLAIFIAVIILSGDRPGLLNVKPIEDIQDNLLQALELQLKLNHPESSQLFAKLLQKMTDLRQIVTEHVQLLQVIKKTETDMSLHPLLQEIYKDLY
Briefly: human PPARgamma binding. To be noted: Supplementary Table 1.

A further experiment has as its target T4, human GPR40 (A1 site) (Homo sapiens, UniProt O14842).
T4 construct: full length recombinant human GPR40 (GPR40) cDNA; expressed in transfected cells; host or cells: HEK 293, stably transfected; crude cell surface membranes
Briefly: A1 site radioligand binding with [3H]-TAK-875. The settings on record: Supplementary Table 1. On the procedure:
(§1) Crude cell surface membranes were prepared from human embryonic kidney 293 (HEK 293) cells stably transfected (for the wild type) or transiently transfected (for the mutants and corresponding wild type) with full length recombinant human GPR40 (GPR40) cDNA, using differential centrifugation methods.
A1 Site Binding. 10 µL of compound diluted in 100% DMSO and 90 µL of Assay Buffer (50 mM Tris-HCl, pH 7.5, 5 mM CaCl2, 5 mM MgCl2, 0.1% w/v fatty acid-free BSA) were added to a deep 96-well polypropylene assay plate (Beckman Coulter).
(§2) Assays were terminated by filtration through GF/C glass fiber filtermats (Perkin Elmer) presoaked in 50 mM Tris–HCl, pH 7.5, using a Mach III cell harvester (TomTec). Filtermats were washed two times with 5 mL of ice-cold 50 mM Tris–HCl, pH 7.5 buffer, dried 1 h in a convection oven at 60 °C and embedded with Meltilex A solid scintillant (Perkin Elmer). Radioactivity was determined as counts per min (cpm) using a Trilux Microbeta plate scintillation counter (Perkin Elmer).

Experiment [4] concerns the target T1, human GPR40. Briefly: Human GPR40 b-arrestin. It is filed as cell-based.
In the next experiment the target is T5, human PPARalpha (Homo sapiens, UniProt Q07869).
T5 sequence (Q07869 1-468): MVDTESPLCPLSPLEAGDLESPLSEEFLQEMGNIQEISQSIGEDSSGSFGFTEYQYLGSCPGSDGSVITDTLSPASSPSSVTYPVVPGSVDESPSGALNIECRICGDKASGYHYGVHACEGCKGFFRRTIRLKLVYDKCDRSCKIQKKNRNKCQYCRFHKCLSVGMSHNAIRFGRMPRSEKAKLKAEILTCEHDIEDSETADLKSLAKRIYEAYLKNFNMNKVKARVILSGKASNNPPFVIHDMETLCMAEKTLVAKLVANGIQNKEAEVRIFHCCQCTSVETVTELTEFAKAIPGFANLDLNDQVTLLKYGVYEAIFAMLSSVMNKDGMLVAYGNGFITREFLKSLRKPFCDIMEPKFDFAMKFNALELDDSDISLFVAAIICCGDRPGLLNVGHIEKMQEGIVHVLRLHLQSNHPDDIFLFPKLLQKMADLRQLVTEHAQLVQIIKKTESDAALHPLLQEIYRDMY
Briefly: human PPARalpha binding. To be noted: Supplementary Table 1.

The next experiment has as its target Rat GPR40 (Rattus norvegicus, UniProt Q8K3T4). Briefly: Rat GPR40 b-arrestin. It is filed as cell-based.
Experiment [5] addresses T1, human GPR40. The experiment in a line: Human GPR40 Calcium (Supplementary Table 1). In kind it is cell-based.
The target of the next experiment is T6, human GPR40 (A2 site) (Homo sapiens, UniProt O14842).
T6 construct: full length recombinant human GPR40 (GPR40) cDNA; expressed in transfected cells; host or cells: HEK 293, stably transfected; crude cell surface membranes
The experiment in a line: A2 site radioligand binding with [3H]-AM-1638. To be noted: Supplementary Table 1; read-out: Human GPR40 Binding to A2 Ki. How it is done:
as §1
A2 Site Binding. 10 µL of compound diluted in 100% DMSO and 90 µL of Assay Buffer (50 mM Tris-HCl, pH 7.5, 10 mM CaCl2, 10 mM MgCl2, 0.1% w/v Bacitracin, 2.5% w/v dextran charcoal-treated FBS) were added to a deep 96-well polypropylene assay plate (Beckman Coulter). Two hundred μl of [^3H]-AM-1638 (84 Ci/mmol, Quotient Bioresearch Radiochemicals, Ltd.; 0.5 nM final concentration) and 200 µL of GPR40 membranes (5 µg/well), both diluted in Assay Buffer, were added to the assay plate, followed by a 1 min shake and a 1 h incubation at room temperature (22 °C).
as §2

The next experiment addresses T7, human PPARdelta (Homo sapiens, UniProt Q03181).
T7 sequence (Q03181 1-441): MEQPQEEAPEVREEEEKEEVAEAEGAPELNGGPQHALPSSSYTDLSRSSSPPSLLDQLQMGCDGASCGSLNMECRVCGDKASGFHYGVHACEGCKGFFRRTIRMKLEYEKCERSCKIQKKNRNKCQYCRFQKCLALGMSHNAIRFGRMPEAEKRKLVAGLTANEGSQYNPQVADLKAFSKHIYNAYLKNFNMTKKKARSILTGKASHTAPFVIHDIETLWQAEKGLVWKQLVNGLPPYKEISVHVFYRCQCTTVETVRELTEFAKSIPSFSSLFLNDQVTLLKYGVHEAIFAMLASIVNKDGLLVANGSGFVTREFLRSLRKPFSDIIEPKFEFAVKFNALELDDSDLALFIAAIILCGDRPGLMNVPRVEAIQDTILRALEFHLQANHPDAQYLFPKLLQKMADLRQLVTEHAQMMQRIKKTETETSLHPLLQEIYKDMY
The experiment in a line: human PPARdelta binding. To be noted: Supplementary Table 1.

The next experiment concerns the target Mouse GPR40 (Mus musculus, UniProt Q76JU9). The experiment in a line: Mouse GPR40 b-arrestin. It is filed as cell-based.
Experiment [6] addresses T2, Human GPR120. Briefly: Human GPR120 binding. The settings on record: Supplementary Table 1.
In another experiment the target is T8, Mouse GPR120 (Mus musculus, UniProt Q7TMA4).
T8 sequence (Q7TMA4 1-361): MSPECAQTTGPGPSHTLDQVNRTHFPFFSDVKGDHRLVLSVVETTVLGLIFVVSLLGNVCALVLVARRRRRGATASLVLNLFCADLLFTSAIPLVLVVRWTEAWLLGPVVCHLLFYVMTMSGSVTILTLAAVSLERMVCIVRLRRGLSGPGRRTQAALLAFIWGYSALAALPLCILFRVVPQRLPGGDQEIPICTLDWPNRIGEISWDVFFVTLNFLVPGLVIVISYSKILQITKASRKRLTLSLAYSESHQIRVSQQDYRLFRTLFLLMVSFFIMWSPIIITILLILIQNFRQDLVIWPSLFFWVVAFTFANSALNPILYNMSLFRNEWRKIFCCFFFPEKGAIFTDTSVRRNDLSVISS
Briefly: Mouse GPR120 b-arrestin. In kind it is cell-based. The settings on record: Supplementary Table 1.

Experiment [7] deals with T2, Human GPR120. Briefly: Human GPR120 b-arrestin. In kind it is cell-based. The settings on record: Supplementary Table 1.
A further experiment concerns GPR40 KO mice. The experiment in a line: OGTT in GPR40 KO mice. In kind it is in vivo, mouse. The settings on record: high dose of compound 1. How it is done: Eight to thirteen week old male C57BL/6 or KO mice were used. The day before the study, at 1600 hours, animals were transferred into clean cages and food was removed. The following morning (~0800 hours), mice were randomized by block randomization to treatment groups (N = 5–7 per group) so each group had similar mean and standard deviation of body weight and blood glucose. […] Animals were dosed with vehicle (0.5% MC/0.25% Tween-80) or the test article by oral gavage. Group allocations were not blinded from the experimenters who collected the data. After 60 min compound treatment animals were then given an oral gavage of glucose (2 g/kg). At 0, 15, 30, 60, and 120 min post oral glucose, two glucose readings via glucometers were obtained. The average of two glucose readings was reported at each time point. Data were expressed as mean±standard error (s.e.m.). Blood glucose values were analyzed using ANOVA with repeated measures. Cook’s distance was also calculated from linear regression. All animals were included in the analysis with their individual averaged Cook’s distance < 1. Dunnett’s comparison was performed at each time point by R program. Significance is denoted at p < 0.05.

Where only a bound is given, the exact number is not on record here.

Mouse GPR40, sequence (Q76JU9 whole entry): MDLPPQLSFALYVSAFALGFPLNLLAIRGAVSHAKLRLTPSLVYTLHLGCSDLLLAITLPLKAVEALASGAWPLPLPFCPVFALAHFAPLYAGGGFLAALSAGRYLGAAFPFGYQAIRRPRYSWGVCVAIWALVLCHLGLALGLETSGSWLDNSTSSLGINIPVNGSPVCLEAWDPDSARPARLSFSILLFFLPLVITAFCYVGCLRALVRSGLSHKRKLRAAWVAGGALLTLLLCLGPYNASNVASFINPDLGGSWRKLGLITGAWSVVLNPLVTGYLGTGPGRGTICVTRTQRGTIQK
Rat GPR40, sequence (Q8K3T4 whole entry): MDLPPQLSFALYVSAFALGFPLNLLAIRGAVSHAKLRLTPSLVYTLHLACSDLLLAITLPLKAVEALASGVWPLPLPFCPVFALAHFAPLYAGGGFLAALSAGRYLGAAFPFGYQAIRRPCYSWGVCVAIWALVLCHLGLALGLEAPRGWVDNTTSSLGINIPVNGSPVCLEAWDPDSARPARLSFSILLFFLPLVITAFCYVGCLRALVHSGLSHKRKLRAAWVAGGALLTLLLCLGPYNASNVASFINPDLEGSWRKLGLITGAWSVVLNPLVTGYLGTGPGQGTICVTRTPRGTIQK
T1 sequence (O14842 whole entry): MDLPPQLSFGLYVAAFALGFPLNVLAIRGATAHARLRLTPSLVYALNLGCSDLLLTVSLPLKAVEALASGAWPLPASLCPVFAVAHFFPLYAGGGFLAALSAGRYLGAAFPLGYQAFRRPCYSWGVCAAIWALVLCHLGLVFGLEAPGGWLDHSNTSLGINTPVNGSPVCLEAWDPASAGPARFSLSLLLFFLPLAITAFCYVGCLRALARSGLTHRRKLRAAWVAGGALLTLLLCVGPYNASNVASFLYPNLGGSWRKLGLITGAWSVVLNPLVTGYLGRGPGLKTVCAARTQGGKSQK
T6 sequence (O14842 whole entry): as above
T4 sequence (O14842 whole entry): as above

As to semaglutide [reference compound], in [1], the “glucose lowering in IPGTT, GPR40 KO” value is recorded as “can be triggered” and the “insulin secretion in IPGTT, GPR40 KO” value is on record as “can be triggered”.

What is called EC50 is the concentration that produces a half-maximal response. A word on the Emax: it is the size of the effect at its maximum, as opposed to the concentration needed. One may read the Ki as the dissociation constant of the complex between target and ligand, obtained from inhibition or displacement. Broadly, the IC50 is the concentration at which inhibition is half-maximal. Take `COc1ccc(F)c(-c2ccc(COc3cccc([C@@H](CC(=O)O)C4CC4)c3)cc2C2=CCCC2(C)C)c1` [AM-1638]: the 50% effective concentration (EC50) at human GPR40 [2] worked out at 0.25 nM; at Human GPR120 [3], 2870 nM; on human GPR40 [4], 16 nM; at Rat GPR40, 105 nM; on human GPR40 [5], 1.7 nM; on Mouse GPR40, 22.7 nM. Further, the Emax at human GPR40 [2] came to 197%; on Human GPR120 [3] it was 63%; at human GPR40 [4] it was 153%; at Rat GPR40 it was 113%; on human GPR40 [5], 98%; at Mouse GPR40, 112%. For the same compound, the Ki on human PPARgama is more than 10000 nM; on human GPR40 (A1 site), more than 6910 nM; on human PPARalpha, 3170 nM; at human GPR40 (A2 site), 1.4 nM. The half-maximal inhibitory concentration (IC50) on human PPARdelta is more than 10000 nM.

As for `CC#C[C@@H](CC(=O)O)c1ccc(OCc2ccc(CN3CCC4(C=Cc5ccccc54)CC3)cc2)cc1` [LY2881835], the concentration giving a half-maximal response (EC50) at human GPR40 [2] was 1.24 nM; at Human GPR120 [3], more than 50000 nM; at human GPR40 [4] it was 8.7 nM; on Mouse GPR120, more than 50000 nM; at Rat GPR40 it was 2 nM; on human GPR40 [5], 9.1 nM. Besides, the EC50 at Human GPR120 [7] is more than 100000 nM; at Mouse GPR40, 0.8 nM. Besides, the maximal response (Emax) on human GPR40 [2] was 162%; at human GPR40 [4] it was 137%; on Rat GPR40, 124%; on human GPR40 [5], 62%; on Mouse GPR40, 133%. Also, the Ki was more than 10000 nM at human PPARgama; more than 100000 nM at Human GPR120 [6]; 4.7 nM on human GPR40 (A1 site); more than 10000 nM at human PPARalpha; more than 3720 nM on human GPR40 (A2 site). Besides, on human PPARdelta, the half-maximal inhibitory concentration (IC50) was more than 10000 nM.

Turning to `N[C@@H](CC(=O)N1CCn2c(nnc2C(F)(F)F)C1)Cc1cc(F)c(F)cc1F` [sitagliptin, reference compound], the “blood glucose in OGTT, GPR40 KO” value in the experiment on GPR40 KO mice is “respond to glucose lowering”.
